Measured values published in patent US7973024B2, “24-sulfoximine vitamin D3 compounds” (Cyctochroma Inc., priority 2002, dated 2011).

How the values were obtained:
CYP24 [1] = target: T1, CYP24 (Homo sapiens, UniProt Q07973); test: CYP24 enzyme assay (stable cell line V79-CYP24 cells); format: cell-based; settings: [3H-1β]-1α,25(OH)2D3 20 nM, 2 hours
T1 construct: expressed in transfected cells
T1 sequence (Q07973 36-514): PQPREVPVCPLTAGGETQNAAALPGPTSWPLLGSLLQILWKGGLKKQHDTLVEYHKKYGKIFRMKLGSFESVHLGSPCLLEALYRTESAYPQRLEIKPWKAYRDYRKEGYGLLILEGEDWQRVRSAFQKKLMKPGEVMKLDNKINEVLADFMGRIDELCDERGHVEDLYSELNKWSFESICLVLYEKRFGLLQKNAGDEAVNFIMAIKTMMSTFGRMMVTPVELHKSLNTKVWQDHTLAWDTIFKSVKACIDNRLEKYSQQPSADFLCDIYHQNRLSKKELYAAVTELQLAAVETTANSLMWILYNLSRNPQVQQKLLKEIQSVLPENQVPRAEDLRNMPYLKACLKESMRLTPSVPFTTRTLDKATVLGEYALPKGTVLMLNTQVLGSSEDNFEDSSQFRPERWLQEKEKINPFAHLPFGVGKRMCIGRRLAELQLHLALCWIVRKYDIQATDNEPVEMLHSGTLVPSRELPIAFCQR
Description: 1. Preparation of Cell Suspension • On the day of the assay, washed the monolayer of V79-CYP24 cells once with 1×PBS buffer and then trypsinize for 5 min at room temperature (approx. 22° C.). Added 1×PBS. Collected cells into tube, centrifuged cells (500×g, 5 min) and resuspended in DMEM+1% BSA media.
2. Cell Plating • Added 150 μl of cell suspension to appropriately labelled wells of a 48-well plate. Incubated plate for 30 minutes at 37° C. in a humidified atmosphere containing 5% CO2 for adherence of cells to wells.
3. Compound Addition • Added 25 μl of inhibitor (10^−6 to 10^−9 M) and then after 10 min added 25 μl of substrate [^3H-1β]-1α,25(OH)2D3 (20 nM) for 2 hours at 37° C. in a humidified atmosphere containing 5% CO2. Both inhibitor and substrate were prepared in DMEM with 1% BSA media in the absence and presence of 100 μM DPPD.
4. Lipid Extraction and Counting • Added 500 μL of methanol to stop the reaction. Transferred to tube. Added 250 μl of dichloromethane and vortexed. Added 250 μl of dichloromethane and 250 μl of saturated KCL and vortexed. Centrifuged at 4000 rpm for 5 min. Triplicate 100 μl aliquots of aqueous fraction were mixed with 600 μl of scintillation fluid and the radioactivity was measured using a scintillation counter. All values were normalized for background. (iii) Results.

VDR = target: T2, VDR (Homo sapiens, UniProt P11473); test: VDR binding assay; settings: B50: displacement of 50 percent [3H]-1,25(OH)2D3 from human recombinant VDR
T2 construct: purchased Biomol
T2 sequence (P11473 1-427): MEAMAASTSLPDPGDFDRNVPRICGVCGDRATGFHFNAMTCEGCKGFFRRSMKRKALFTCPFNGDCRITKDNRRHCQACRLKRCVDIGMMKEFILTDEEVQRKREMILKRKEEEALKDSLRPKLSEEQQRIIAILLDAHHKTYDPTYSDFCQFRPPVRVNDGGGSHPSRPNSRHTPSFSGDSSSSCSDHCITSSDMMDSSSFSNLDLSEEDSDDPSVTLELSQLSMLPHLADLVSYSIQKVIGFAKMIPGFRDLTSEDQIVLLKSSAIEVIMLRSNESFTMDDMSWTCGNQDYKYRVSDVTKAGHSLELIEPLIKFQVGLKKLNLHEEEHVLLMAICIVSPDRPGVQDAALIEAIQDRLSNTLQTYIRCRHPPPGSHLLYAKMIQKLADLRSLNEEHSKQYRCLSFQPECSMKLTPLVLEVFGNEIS
Description: 1. VDR 9.4 pmol/μl (human, recombinant, Biomol).
4. TEK300 • Tris-HCI 50 mM • EDTA 1.5 mM • KCI 300 mM Adjust pH to 7.4 (25° C.)
3. Preparation of 1.25(OH)2D3 and test compounds in ethanol
1 μl stock VDR in 2.5 ml TEDK300/Gelatin solution (500 μl/tube), (keep on ice)
• Label tubes according to the following chart, each in triplicate:
• Mixed all tubes via vortex and incubated at room temperature for 1 hour. Added 10 μL of 3H-1,25(OH)2D3 Working Dilution, mixed by vortex and incubated at room temperature for 1 hour 2. Sample processing • Thirty minutes before addition, put Charcoal/Dextran Solution on ice with continuous mixing. Added […] of Charcoal/Dextran Solution to each tube, mixed well and incubated on ice for 30 minutes. Centrifuged @ 2000 rpm for 10 minutes at 4° C. 3. Counting • Pipetted 100 μL of the upper, aqueous phase to a 24 well scintillation counting plate and added 600 μL scintillation fluid per well, covered and mixed well. Counted the plate using a scintillation counter for 5 min/sample. (iv) Calculations: • The amount of 1,25(OH)2D3 to displace 50 percent [^3H]-1,25(OH)2D3 from VDR was calculated as B50 for 1,25(OH)2D3. The VDR binding of other compounds was calculated as B50 relative to a value of 1 for 1,25(OH)2D3.

CYP24 [2] = target: T1, CYP24; test: In vitro test of ability to inhibit specifically CYP24 (standard protocol); format: cell-based; settings: ketoconazole as control standard
SCC-25 cells = test: [3H]-thymidine proliferation assay with SCC-25 cells; format: cell-based; settings: together with calcitriol, three days, [3H]-thymidine 6 h
Description: 1. Preparation of Cell Suspension • When SCC-25 cells were 70-80% confluent, aspirated media. Washed the cells with 1×PBS. Trypsinized with trypsin-EDTA from the plate, collected cells from the tissue culture flask, centrifuged (500×g, 5 min) and resuspended in media.
2. Cell Plating. • Counted the cells and adjusted the cell density to 10,000/ml. Added 200 μl per well in a 96 well plate. Incubated plate for 24 h at 37° C. in a humidified atmosphere plus 5% CO2. Aspirated used media and replaced with 150 μl per well with media.
3. Compound Addition. • Added 25 μl of 1α,25(OH)2D3 (final concentration 10^−6M, 10^−7 M, 10^−8 M, M, 10^−10 M, 10^−11 M) into each designated well. Added 25 μl of substrate (final concentration 10^−7 M, 5×10^−8 M, 10^−8 M or 10^−9 M) into each designated well. Incubated plates for 3 days at 37° C. in a humidified atmosphere plus 5% CO2.
4. ^3H-Thymidine Incorporation. • Added ^3H-thymidine at 0.02 μCi per well and incubated at 37° C. in a humidified atmosphere plus 5% CO2 for 6 h.
(§1) 5. Plate Harvesting. • Aspirated all media and washed cells with 1×PBS. Trypsinized cells for 30 min at 37° C. in a humidified atmosphere plus 5% CO2. Harvested cells onto a 96 well filter plate (Millipore) using a Tomtec Cell Harvestor, according to manufacturers instructions.
(§2) 6. Scintillation Counting. • Added 25 μl of scintillation fluid per well. Counted the plate using a scintillation counter.

[3] = tested on: normal human epidermal keratinocytes (NHEK); test: Human epidermal keratinocyte proliferation assay; format: cell-based; settings: together with calcitriol, three days, [3H]-thymidine 18 h
Description: 1. HEK Cell Media • Supplemented KGM media with additional reagents provided in the bullet kit as per supplier's instructions. • Added calcium chloride to final concentration of 0.3 mM.
2. Calcitriol Dilutions • Stock: Calcitriol (1 mM)
3. Substrate Dilutions • Stock: substrate (0.1 mM)
1. Cell Culture • Thawed one vial of HEK cells containing at least 500 K, and divided into 5 25 cm^2 flasks with 5 ml HEK cell media. 24 h later, removed media and replenished with 5 ml fresh media. Changed media again 48 h later.
2. Preparation of Cell Suspension • On the day of the assay, washed the monolayer of HEK cells once with 1×PBS buffer (provided in reagent pack) and then trypsinized for 5 min at 37° C. Added trypsin neutralizing solution (provided in reagent pack). Collected cells into tube, centrifuged cells (500×g, 5 min) and resuspended in HEK cell media. Counted cells and adjusted density to 150,000 cells/ml. Diluted cells further 1:30 with HEK cell media.
2. Cell Plating • Added 150 μl of cell suspension to appropriately labelled wells of a 96-well plate. Incubated plate for 48 h at 37° C. in a humidified atmosphere containing 5% CO2 for adherence of cells to wells.
3. […]
4. Cell Harvesting and Counting • Added 0.2 μCi/well of [^3H]-thymidine in 20 μl of HEK cell media to each well. Incubated plates for 18 h at 37° C. in a humidified atmosphere containing 5% CO2. Aspirated media and washed with 1×PBS. Trypsinize-cells for 30 min at 37° C. in a humidified atmosphere containing 5% CO2. Harvested cells onto filter plates using Tomtec cell harvester as per manufacturer's instructions. Added 25 μl scintillation fluid per well. Measured radioactivity using a scintillation counter. All values were normalized for background.

MCF-7 cells = test: [3H]-thymidine proliferation assay with MCF-7 cells; format: cell-based; settings: together with calcitriol, three days, [3H]-thymidine 6 h
Description: 1. Preparation of Cell Suspension • When MCF-7 cells were 70-80% confluent, aspirated growth media. Washed the cells with 1×PBS. Trypsinized with trypsin-EDTA from the plate, collected cells from the tissue culture flask, centrifuged (500×g, 5 min) and resuspended in growth media.
2. Cell Plating. • Counted the cells and adjusted the cell density to 25,000/ml. Added 200 μl per well in a 96 well plate. Incubated plate for 24 h at 37° C. in a humidified atmosphere plus 5% CO2. Aspirated used media and replaced with 150 μl per well with proliferation media.
3. Substrate Addition. • Added 25 μl of 1α,25(OH)2D3 (final concentration 10^−6 M, 10^−7 M, 10^−8 M, 10^−9 M, 10^−10 M, 10^−11 M) into each designated well. Added 25 μl of substrate (final concentration 10^−7 M, 5×10^−8 M, 10^−8 M or 10^−9 M) into each designated well. Incubated plates for 3 days at 37° C. in a humidified atmosphere plus 5% CO2.
4. ^3H-Thymidine incorporation. • Added ^3H-thymidine at 0.02 μCi per well and incubated at 37° C. in a humidified atmosphere plus 5% CO2 for 6 h.
as §1, §2

Row | SMILES | IC50 (CYP24 [1]) | IC50 (VDR) | selective inhibition of CYP24 (CYP24 [2]) | inhibition of proliferation of SCC-25 cells (SCC-25 cells) | inhibition of proliferation of normal human epidermal keratinocytes (NHEK) [3] | inhibition of proliferation of MCF-7 cells (MCF-7 cells)
1 | CN=S(=O)(CC[C@@H](C)[C@H]1CC[C@H]2/C(=C/C=C3C[C@@H](O)C[C@H](O)C3)CCC[C@]12C)c1ccccc1 (single isomer, unassigned) [I(k), 24-Phenyl N-Methyl Sulfoximine 19-Nor-Vitamin-D3] | 300 nM | > 2000 nM | selectively inhibit |  |  | 
2 | C=C1CC[C@H](O)C/C1=C/C=C1\CCC[C@]2(C)[C@@H]([C@H](C)CCS(=N)(=O)c3ccccc3)CC[C@@H]12 (stereo partly shown) [I(m), 24-Phenyl Sulfoximine 1-Nor Vitamin-D3] | 120 nM | > 2000 nM | selectively inhibit |  |  | 
3 | C=C1/C(=C\C=C2/CCC[C@]3(C)[C@@H]([C@H](C)/C=C/S(=N)(=O)c4ccccc4)CC[C@@H]23)C[C@@H](O)C[C@@H]1O (stereo partly shown) [I(r)] |  |  | selectively inhibit |  |  | 
4 | CN=S(=O)(CC[C@@H](C)[C@H]1CC[C@H]2/C(=C/C=C3C[C@@H](O)C[C@H](O)C3)CCC[C@]12C)c1ccccc1 (single isomer, unassigned) [I(l), 24-Phenyl N-Methyl Sulfoximine 19-Nor-Vitamin-D3] | 42 nM |  | selectively inhibit | act to inhibit the proliferation |  | 
5 | C[C@H](CCS(=N)(=O)c1ccccc1)[C@H]1CC[C@H]2/C(=C/C=C3C[C@@H](O)C[C@H](O)C3)CCC[C@]12C (single isomer, unassigned) [I(j), 24 Phenyl Sulfoximine 19-Nor-Vitamin-D3] | 27 nM |  | selectively inhibit | act to inhibit the proliferation |  | 
6 | C=C1/C(=C\C=C2/CCC[C@]3(C)[C@@H]([C@H](C)CC4(S(=N)(=O)c5ccccc5)CC4)CC[C@@H]23)C[C@@H](O)C[C@@H]1O (single isomer, unassigned) [I(o)] | 20 nM |  | selectively inhibit | act to inhibit the proliferation | act to inhibit the proliferation | 
7 | C=C1/C(=C\C=C2/CCC[C@]3(C)[C@@H]([C@H](C)CC4(S(=N)(=O)c5ccccc5)CC4)CC[C@@H]23)C[C@@H](O)C[C@@H]1O (single isomer, unassigned) [I(n)] | 23 nM |  | selectively inhibit | act to inhibit the proliferation | act to inhibit the proliferation | act to inhibit the proliferation
8 | C=C1/C(=C\C=C2/CCC[C@]3(C)[C@@H]([C@H](C)CCS(=N)(=O)c4ccc(F)cc4)CC[C@@H]23)C[C@@H](O)C[C@@H]1O (single isomer, unassigned) [I(q)] | 78 nM |  | selectively inhibit |  |  | 
9 | C=C1/C(=C\C=C2/CCC[C@]3(C)[C@@H]([C@H](C)CCS(=N)(=O)c4ccc(F)cc4)CC[C@@H]23)C[C@@H](O)C[C@@H]1O (single isomer, unassigned) [I(p)] | 42 nM |  | selectively inhibit |  |  | 
10 | C=C1/C(=C\C=C2/CCC[C@]3(C)[C@@H]([C@@H](C)/C=C/S(=N)(=O)c4ccccc4)CC[C@@H]23)C[C@@H](O)C[C@@H]1O (stereo partly shown) [I(s)] | 580 nM |  | selectively inhibit |  |  | 
